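Exposure lasted 48 hours, with cells grown in 96-well plates and compounds tested at five concentrations. TGI: concentration producing complete growth inhibition.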
Key:
Experiment in all cases: DTP human tumour cell line panel, 48 h
A549 NSCLC = system: A549 NSCLC
KM12 colon = system: KM12 colon
OVCAR-8 ovarian = system: OVCAR-8 ovarian
HS 578T breast = system: HS 578T breast
HOP-92 NSCLC = system: HOP-92 NSCLC
DU-145 prostate = system: DU-145 prostate
MALME-3M melanoma = system: MALME-3M melanoma
SF-268 CNS = system: SF-268 CNS
MCF7 breast = system: MCF7 breast
HCT-15 colon = system: HCT-15 colon
RXF 393 renal = system: RXF 393 renal
UACC-62 melanoma = system: UACC-62 melanoma
NCI-H23 lung = system: NCI-H23 lung
OVCAR-3 ovarian = system: OVCAR-3 ovarian
T-47D breast = system: T-47D breast
OVCAR-4 ovarian = system: OVCAR-4 ovarian
HOP-62 NSCLC = system: HOP-62 NSCLC
SR leukemia = system: SR leukemia
SF-539 CNS = system: SF-539 CNS
CCRF-CEM leukemia = system: CCRF-CEM leukemia
NCI-H460 lung = system: NCI-H460 lung
IGROV1 ovarian = system: IGROV1 ovarian
SK-OV-3 ovarian = system: SK-OV-3 ovarian
786-0 renal = system: 786-0 renal
U251 CNS = system: U251 CNS
MDA-MB-231 breast = system: MDA-MB-231 breast
RPMI-8226 leukemia = system: RPMI-8226 leukemia
SK-MEL-28 melanoma = system: SK-MEL-28 melanoma
MDA-MB-435 = system: MDA-MB-435
NCI/ADR-RES ovarian = system: NCI/ADR-RES ovarian
EKVX NSCLC = system: EKVX NSCLC
TK-10 renal = system: TK-10 renal
NCI-H226 lung = system: NCI-H226 lung
HL-60(TB) leukemia = system: HL-60(TB) leukemia
NCI-H522 lung = system: NCI-H522 lung
MOLT-4 leukemia = system: MOLT-4 leukemia
M14 melanoma = system: M14 melanoma
HT29 colon = system: HT29 colon
COLO 205 colon = system: COLO 205 colon
K-562 leukemia = system: K-562 leukemia
HCT-116 colon = system: HCT-116 colon
SNB-19 CNS = system: SNB-19 CNS
A498 renal = system: A498 renal
SNB-75 CNS = system: SNB-75 CNS

Measured: TGI

COP(=O)(Cc1ccc(/C=C/C#N)o1)OC
> 100 µM: all assays above
